Measured values from patent publication US20120202856A1, “SUBSTITUTED BENZIMDAZOLE DERIVATIVES USEFUL AS TRPM8 RECEPTOR MODULATORS” (priority 2011, published 2012).
Values joined by “and” are separate entries in the source; they are usually repeats but may differ in a detail not shown here. Equal entries are not always repeated. Structures can show the parent of a compound that is named as a salt. Where two headings read alike, the source gives them in different places.

Biological target: T1, canine TRPM8 (Canis lupus familiaris, UniProt Q1A7N1)
T1 construct: expressed in transfected cells
Assay: In Vitro Canine TRPM8 Functional Assay (intracellular Ca2+ fluorescence, icilin activation, HEK293 cells)
Type: cell-based
Details: for IC50: HEK293 cells expressing canine TRPM8, icilin activation, individually measured values (batches/salt forms), read-out: IC50 (nM), in vitro TRP M8 Activity
Description: The changes in fluorescent signal were monitored by a fluorescence plate reader, either a FLIPR™ (Molecular Devices) or FDSS (Hamamatsu). […] Cells were maintained in 5% CO2 at 37° C. At 24 hr prior to assay, cells were seeded in black wall, clear-base poly-D-lysine coated 384-well plates (BD Biosciences, NJ, USA) at a density of 5,000 cells per well in culture medium and grown overnight in 5% CO2 at 37° C. On assay day, growth media was removed, and cells were loaded with Calcium 3 Dye (Molecular Devices) for 35 min at 37° C., under 5% CO2 and then incubated for 25 min at room temperature and atmosphere. Subsequently, cells were tested for agonist-induced increases in intracellular Ca^2+ levels using FLIPR™ or FDSS. […] Maximal fluorescence intensity (FI) achieved upon addition of icilin was exported from the FLIPR™ or FDSS software and further analyzed using GraphPad Prism 3.02 (Graph Pad Software Inc., CA, U.S.A.). Basal FI was subtracted prior to normalizing data to percent of maximal response. Curves were generated using the average of quadruplicate wells for each data point using nonlinear regression of either sigmoidal dose response or sigmoidal dose response (variable slope). Finally, IC50 values were calculated with the best-fit curve determined by GraphPad Prism

[1] = HEK293, 0.2 μM test compound, individually measured values, read-out: % Inh (%) @0.2 μM, in vitro TRP M8 Activity
[2] = HEK293, read-out: % Inh (%) @0.2 μM, in vitro TRP M8 Activity, 0.2 μM test compound, individually measured values

T1 sequence (Q1A7N1 1-1104): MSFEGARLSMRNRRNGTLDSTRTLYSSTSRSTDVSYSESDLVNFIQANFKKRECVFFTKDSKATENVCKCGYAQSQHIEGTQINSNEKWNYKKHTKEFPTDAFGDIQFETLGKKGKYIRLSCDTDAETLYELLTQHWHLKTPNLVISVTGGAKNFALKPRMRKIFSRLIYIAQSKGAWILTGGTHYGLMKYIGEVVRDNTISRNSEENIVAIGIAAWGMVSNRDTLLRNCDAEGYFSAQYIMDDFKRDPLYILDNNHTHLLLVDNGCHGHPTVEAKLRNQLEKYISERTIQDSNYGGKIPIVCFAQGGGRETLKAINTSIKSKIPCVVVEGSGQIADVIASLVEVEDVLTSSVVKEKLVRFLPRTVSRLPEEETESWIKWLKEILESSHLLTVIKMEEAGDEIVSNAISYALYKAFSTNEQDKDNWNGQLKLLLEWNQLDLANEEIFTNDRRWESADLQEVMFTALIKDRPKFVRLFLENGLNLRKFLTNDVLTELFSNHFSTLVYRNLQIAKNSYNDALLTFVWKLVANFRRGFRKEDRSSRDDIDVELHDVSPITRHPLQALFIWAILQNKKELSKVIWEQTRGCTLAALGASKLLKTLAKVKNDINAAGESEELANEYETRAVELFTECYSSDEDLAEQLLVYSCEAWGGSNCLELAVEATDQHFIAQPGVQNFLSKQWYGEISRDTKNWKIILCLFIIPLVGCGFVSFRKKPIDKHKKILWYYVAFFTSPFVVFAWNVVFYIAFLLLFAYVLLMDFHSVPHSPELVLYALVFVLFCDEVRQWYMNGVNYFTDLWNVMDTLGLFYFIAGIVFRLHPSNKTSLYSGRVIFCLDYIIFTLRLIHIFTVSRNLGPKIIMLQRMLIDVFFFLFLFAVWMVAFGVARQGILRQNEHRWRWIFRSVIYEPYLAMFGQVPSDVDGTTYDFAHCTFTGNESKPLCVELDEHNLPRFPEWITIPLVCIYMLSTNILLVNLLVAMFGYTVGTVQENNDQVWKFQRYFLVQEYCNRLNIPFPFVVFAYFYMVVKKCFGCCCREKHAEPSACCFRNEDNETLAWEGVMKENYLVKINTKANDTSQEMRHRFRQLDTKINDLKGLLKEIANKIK

SMILES	inhibition at 0.2 µM [1]	IC50	also measured
FC(F)(F)c1ccccc1-c1ccc2nc(-c3cc(C4CCCCC4)no3)[nH]c2c1 [Compound 24, 2-(3-Cyclohexylisoxazol-5-yl)-6-(2-trifluoromethylphenyl)-1H-benzimidazole hydrochloride]	63%		
CC(C)c1cc(-c2nc3cc(-c4cccc(C(F)(F)F)c4)ccc3[nH]2)on1 [Compound 7, 2-(3-Isopropylisoxazol-5-yl)-5-(3-trifluoromethylphenyl)-1H-benzimidazole sodium salt]	10%		
CC(C)c1cc(-c2nc3cc(-c4ccccc4)ccc3[nH]2)on1 [Compound 1, 2-(3-Isopropylisoxazol-5-yl)-5-phenyl-1H-benzimidazole sodium salt]		111 nM	
Cn1nc(C(C)(C)C)c(C#N)c1-c1nc2cc(-c3c(F)cccc3C(F)(F)F)cc(C(F)(F)F)c2[nH]1.[Na] [Compound 152, 3-tert-Butyl-5-[5-(2-fluoro-6-trifluoromethyl-phenyl)-7-trifluoromethyl-1H-benzimidazol-2-yl]-1-methyl-1H-pyrazole-4-carbonitrile sodium salt]		5.3 nM and 6.5 nM and 5 nM	% Inh (%) @0.2 μM, in vitro TRP M8 Activity (0.2 μM test compound, individually measured values, sodium salt, 0.2 µM): 99%; inhibition at 0.2 µM [2]: 100%
COc1cccc(F)c1-c1ccc2[nH]c(-c3cc(C(C)(C)C)no3)nc2c1 [Compound 64, 2-(3-tert-Butyl-isoxazol-5-yl)-5-(2-fluoro-6-methoxy-phenyl)-1H-benzimidazole trifluoroacetic acid salt]		8.7 nM	
Cn1nc(C(C)(C)C)cc1-c1nc2cc(-c3ccccc3Cl)ccc2[nH]1 [Compound 59, 2-(5-tert-Butyl-2-methyl-2H-pyrazol-3-yl)-5-(2-chloro-phenyl)-1H-benzimidazole trifluoroacetic acid salt]		8.3 nM	
CC(C)Cc1cc(-c2nc3ccc(-c4ccccc4OC(F)(F)F)cc3[nH]2)on1 [Compound 23, 2-(3-Isobutylisoxazol-5-yl)-6-(2-trifluoromethoxyphenyl)-1H-benzimidazole hydrochloride]		30 nM	
CC(C)(C)c1cc(-c2nc3cc(-c4ccccc4OC(F)(F)F)ccc3[nH]2)n(Cc2ccccc2)n1 [Compound 49, 2-(5-tert-Butyl-2-benzyl-2H-pyrazol-3-yl)-5-(2-trifluoromethoxyphenyl)-1H-benzimidazole sodium salt]		42.3 nM	
Cc1c(C(C)(C)C)nn(C)c1-c1nc2cc(-c3c(F)cccc3F)ccc2[nH]1 [Compound 95, 2-(5-tert-Butyl-2,4-dimethyl-2H-pyrazol-3-yl)-5-(2,6-difluoro-phenyl)-1H-benzimidazole hydrochloride]		5.7 nM	
COc1cccc(F)c1-c1ccc2[nH]c(-c3cnc(C(C)(C)C)n3C)nc2c1 [Compound 70, 2-(2-tert-Butyl-3-methyl-3H-imidazol-4-yl)-5-(2-fluoro-6-methoxy-phenyl)-1H-benzimidazole trifluoroacetic acid salt]		134 nM	
Cn1nc(C(C)(C)C)c(Cl)c1-c1nc2cc(-c3c(F)cccc3OC(F)(F)F)ccc2[nH]1 [Compound 88, 2-(5-tert-Butyl-4-chloro-2-methyl-2H-pyrazol-3-yl)-5-(2-fluoro-6-trifluoromethoxy-phenyl)-1H-benzimidazole hydrochloride]		3.6 nM and 9.7 nM	
CC(C)(C)c1cc(-c2nc3cc(-c4c(F)cccc4F)cc(C(F)(F)F)c3[nH]2)on1 [Compound 140, 2-(3-tert-Butyl-isoxazol-5-yl)-5-(2,6-difluoro-phenyl)-7-trifluoromethyl-1H-benzimidazole sodium salt]		4.5 nM and 7.4 nM	inhibition at 0.2 µM [2]: 100%
CC(C)c1cc(-c2nc3cc(-c4ccccc4OC(F)(F)F)ccc3[nH]2)on1 [Compound 5, 2-(3-Isopropylisoxazol-5-yl)-5-(2-trifluoromethoxyphenyl)-1H-benzimidazole sodium salt]		22.5 nM	
CC(C)(C)c1cc(-c2nc3cc(-c4ccccc4OC(F)(F)F)cc(C(F)(F)F)c3[nH]2)on1 [Compound 143, 2-(3-tert-Butyl-isoxazol-5-yl)-5-(2-trifluoromethoxy-phenyl)-7-trifluoromethyl-1H-benzimidazole sodium salt]		2.5 nM and 3.7 nM	inhibition at 0.2 µM [2]: 99%
CC(C)(C)c1cc(-c2nc3cc(-c4ccccc4C(F)(F)F)cc(C(F)(F)F)c3[nH]2)on1 [Compound 142, 2-(3-tert-Butyl-isoxazol-5-yl)-7-trifluoromethyl-5-(2-trifluoromethyl-phenyl)-1H-benzimidazole sodium salt]		3 nM and 3.3 nM	inhibition at 0.2 µM [2]: 99%
FC(F)(F)Oc1ccccc1-c1ccc2[nH]c(-c3cc(Br)no3)nc2c1 [Compound 43, 2-(3-Bromoisoxazol-5-yl)-5-(2-trifluoromethoxyphenyl)-1H-benzimidazole sodium salt]		94.6 nM	
FC(F)(F)Oc1ccccc1-c1ccc2[nH]c(-c3cc(Cl)no3)nc2c1 [Compound 34, 2-(3-Chloroisoxazol-5-yl)-5-(2-trifluoromethoxyphenyl)-1H-benzimidazole sodium salt]		72.9 nM	

The next lines start with results.

inhibition at 0.2 µM [1]	IC50	SMILES	also measured
18%		Cc1oc(-c2nc3cc(-c4ccccc4F)cc(C(F)(F)F)c3[nH]2)nc1C(C)(C)C [Compound 193, 2-(4-tert-Butyl-5-methyl-oxazol-2-yl)-5-(2-fluoro-phenyl)-7-trifluoromethyl-1H-benzimidazole hydrochloride]	
11%		Cc1nc(C(C)(C)C)oc1-c1nc2cc(-c3ccccc3C(F)(F)F)cc(C(F)(F)F)c2[nH]1 [Compound 177, 2-(2-tert-Butyl-4-methyl-oxazol-5-yl)-7-trifluoromethyl-5-(2-trifluoromethyl-phenyl)-1H-benzimidazole hydrochloride]	
63%		Cc1oc(-c2nc3cc(-c4ccccc4C(F)(F)F)cc(C(F)(F)F)c3[nH]2)nc1C(C)(C)C [Compound 194, 2-(4-tert-Butyl-5-methyl-oxazol-2-yl)-7-trifluoromethyl-5-(2-trifluoromethyl-phenyl)-1H-benzimidazole hydrochloride]	
91%	33.7 nM	CC(C)(C)c1ncc(-c2nc3cc(-c4ccccc4C(F)(F)F)ccc3[nH]2)s1 [Compound 100, 2-(2-tert-Butyl-thiazol-5-yl)-5-(2-trifluoromethyl-phenyl)-1H-benzimidazole hydrochloride]	
99%	6.2 nM and 4.1 nM	Cn1nc(C(C)(C)C)c(Cl)c1-c1nc2cc(-c3ccccc3C(F)(F)F)cc(C(F)(F)F)c2[nH]1 [Compound 129, 2-(5-tert-Butyl-4-chloro-2-methyl-2H-pyrazol-3-yl)-7-trifluoromethyl-5-(2-trifluoromethyl-phenyl)-1H-benzimidazole hydrochloride]	
48%		Cc1nc(C(C)(C)C)oc1-c1nc2cc(-c3ccccc3F)cc(C(F)(F)F)c2[nH]1 [Compound 175, 2-(2-tert-Butyl-4-methyl-oxazol-5-yl)-5-(2-fluoro-phenyl)-7-trifluoromethyl-1H-benzimidazole hydrochloride]	
	4.2 nM and 6 nM and 3.8 nM	Cn1nc(C(C)(C)C)c(C#N)c1-c1nc2cc(-c3c(F)cccc3F)cc(C(F)(F)F)c2[nH]1 [Compound 151, 3-tert-Butyl-5-[5-(2,6-difluoro-phenyl)-7-trifluoromethyl-1H-benzimidazol-2-yl]-1-methyl-1H-pyrazole-4-carbonitrile sodium salt]	
	58 nM	FC(F)(F)c1ccccc1-c1ccc2[nH]c(-c3cc(C4CC4)no3)nc2c1 [Compound 16, 2-(3-cyclopropylisoxazol-5-yl)-5-(2-trifluoromethylphenyl)-1H-benzimidazole sodium salt]	
100%	10.7 nM	Cn1nc(C(C)(C)C)c(C#N)c1-c1nc2cc(-c3c(F)cccc3OC(F)(F)F)cc(Cl)c2[nH]1 [Compound 173, 3-tert-Butyl-5-[7-chloro-5-(2-fluoro-6-trifluoromethoxy-phenyl)-1H-benzimidazol-2-yl]-1-methyl-1H-pyrazole-4-carbonitrile sodium salt]	
99%	7.3 nM and 4.4 nM	Cn1nc(C(C)(C)C)c(Cl)c1-c1nc2cc(-c3c(F)cccc3F)cc(C(F)(F)F)c2[nH]1 [Compound 124, 2-(5-tert-Butyl-4-chloro-2-methyl-2H-pyrazol-3-yl)-5-(2,6-difluoro-phenyl)-7-trifluoromethyl-1H-benzimidazole hydrochloride]	
	10.1 nM	Cc1c(C(C)(C)C)noc1-c1nc2cc(-c3c(F)cccc3C(F)(F)F)ccc2[nH]1 [Compound 111, 2-(3-tert-Butyl-4-methyl-isoxazol-5-yl)-5-(2-fluoro-6-trifluoromethyl-phenyl)-1H-benzimidazole hydrochloride]	
100%	9.8 nM	Cn1nc(C(C)(C)C)c(C#N)c1-c1nc2cc(-c3ccccc3F)cc(Cl)c2[nH]1 [Compound 167, 3-tert-Butyl-5-[7-chloro-5-(2-fluoro-phenyl)-1H-benzimidazol-2-yl]-1-methyl-1H-pyrazole-4-carbonitrile sodium salt]	
